“Also recorded” adds a separate entry of the source.
How the values were obtained:
M. tuberculosis H37Rv = format: cell-based, Mycobacterium tuberculosis
[1] = system: M. bovis BCG substrain Pasteur; format: cell-based, Mycobacterium bovis BCG
C. glutamicum = settings: AEC alone versus with threonine; cited from earlier work
E. coli = settings: AEC alone; cited from earlier work
aspartokinase = settings: enzyme of the first step of the aspartate amino acid family pathway; cited from earlier work

Compound	inhibitory effect upon growth (M. tuberculosis H37Rv)	inhibitory effect upon growth [1]	inhibition of growth (C. glutamicum)	inhibition of growth (E. coli)	inhibition of aspartokinase (aspartokinase)
C[C@@H](O)[C@H](N)C(=O)O [Thr, threonine]	neither AEC or Thr alone have an inhibitory effect	neither AEC or Thr alone have an inhibitory effect	–	–	–
NCCSC[C@H](N)C(=O)O [AEC, S-(β-aminoethyl)-L-cysteine]	neither AEC or Thr alone have an inhibitory effect; also recorded: the combination of the two does inhibit growth	neither AEC or Thr alone have an inhibitory effect; also recorded: the combination of the two does inhibit growth, with BCG experiencing the greatest inhibition	requires the addition of threonine to inhibit the growth of C. glutamicum	capable of inhibiting the growth of E. coli	inhibits aspartokinase
